This is an account of results in patent US9045415B2, “Targeting of EWS-FLI1 as anti-tumor therapy” (Georgetown University, priority 2006, dated 2015).

For assay [1], the target named is T1, recombinant EWS-FLI1 (Homo sapiens, UniProt Q01543+Q01844).
T1 sequence (Q01543 1-452): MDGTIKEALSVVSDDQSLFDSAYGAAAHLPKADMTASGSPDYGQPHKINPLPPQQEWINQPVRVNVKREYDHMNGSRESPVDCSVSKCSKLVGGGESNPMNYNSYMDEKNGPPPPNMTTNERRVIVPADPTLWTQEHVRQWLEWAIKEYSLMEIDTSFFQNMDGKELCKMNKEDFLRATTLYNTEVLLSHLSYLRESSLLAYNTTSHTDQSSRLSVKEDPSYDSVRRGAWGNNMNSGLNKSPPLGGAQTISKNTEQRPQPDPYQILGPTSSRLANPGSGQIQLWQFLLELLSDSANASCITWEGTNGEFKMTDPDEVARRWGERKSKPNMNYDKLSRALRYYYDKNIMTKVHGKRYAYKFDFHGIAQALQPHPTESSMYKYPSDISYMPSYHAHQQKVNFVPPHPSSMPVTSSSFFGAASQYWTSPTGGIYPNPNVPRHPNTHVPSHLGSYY
T1 sequence (Q01844 1-656): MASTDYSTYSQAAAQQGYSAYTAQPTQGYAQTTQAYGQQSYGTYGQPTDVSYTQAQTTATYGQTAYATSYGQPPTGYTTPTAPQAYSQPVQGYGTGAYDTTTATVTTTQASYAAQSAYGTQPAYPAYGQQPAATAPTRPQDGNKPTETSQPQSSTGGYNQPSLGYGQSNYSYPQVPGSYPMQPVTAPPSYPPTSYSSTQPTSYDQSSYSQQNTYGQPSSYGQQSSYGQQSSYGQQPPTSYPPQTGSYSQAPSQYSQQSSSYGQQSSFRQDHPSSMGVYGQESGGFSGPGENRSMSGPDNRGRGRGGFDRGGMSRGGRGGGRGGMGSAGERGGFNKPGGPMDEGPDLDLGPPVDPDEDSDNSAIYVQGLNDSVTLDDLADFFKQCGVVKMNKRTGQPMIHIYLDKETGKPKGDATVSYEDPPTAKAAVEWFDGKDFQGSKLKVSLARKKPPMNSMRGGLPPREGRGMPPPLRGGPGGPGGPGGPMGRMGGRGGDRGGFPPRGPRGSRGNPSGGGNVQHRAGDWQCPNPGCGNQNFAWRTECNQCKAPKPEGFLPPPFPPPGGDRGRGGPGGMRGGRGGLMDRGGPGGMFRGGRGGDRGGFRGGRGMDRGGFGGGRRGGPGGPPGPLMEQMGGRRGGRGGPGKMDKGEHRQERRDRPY
The assay can be described thus: Surface plasmon resonance (Biacore) binding to EWS-FLI1. On the procedure:
Antp is conjugated to the amino terminal of all peptides used in these studies. Recombinant EWS-FLI1 (MW 55 kDa) was covalently linked to a CM5 chip at a density of 1200 RU, and E9RP (MW 4 kDa) was evaluated for binding. The E9RP analyte concentrations ranged from 0.03-30 μM, and all are shown in duplicate. E9RP bound to EWS-FLI1 with a KD of 4.0 μM.
An assay that will identify whether a peptide can disrupt RHA from interacting with EWS-FLI1 was developed. The Biacore device is a biosensor that utilizes surface plasmon resonance (SPR) to measure the strength of molecular interactions. SPR is the sensitive measurement of […] light based upon alterations of surface characteristics that change with molecules binding to a surface. The Biacore device combines SPR with a microfluidic system.
The KD of E9RP binding to EWS-FLI1 was calculated to be 4.0 μM (FIG. 4).
A surface plasmon resonance assay using the Biacore T100 was established with EWS-FLI1, prepared in our laboratory as previously published (Uren, A., Tcherkasskaya, O. & Toretsky, J. A. Recombinant EWS-FLI1 oncoprotein activates transcription. Biochemistry 43, 13579-13589 (2004)). DNA oligonucleotides were used to quality control the proper conformation of EWS-FLI1 on the surface of a CM5 chip. Small molecules obtained from the Developmental Therapeutics Program of the National Cancer Institute, NIH (http://dtp.nci.nih.gov/branches/dscb/repo_open.html) were prioritized based upon their molecular weight and solubility. An initial screening of molecules was performed at 1 or 10 μM compound, based on solubility. We used a model that compares the actual binding maximum (actual RU) with the theoretical binding maximum (RUtheor). […] Hits (RUactual to RUtheor of 0.7-2.0) were then reviewed by a team of medicinal chemists and those with structural potentials were selected for further study. Selected molecules were tested in vitro in a solution coimmunoprecipitation assay using recombinant EWS-FLI1 and GST-RHA (647-1075).
A general note: SPR reads the build-up and loss of mass on a sensor chip optically.

For assay [2], the system named is RHA binding to EWS-FLI1. In words: Solution immunoprecipitation of GST-RHA with recombinant EWS-FLI1. More on the design: species or system human. The settings on record: for binding of GST-RHA (647-1075) to full-length recombinant EWS-FLI1: cell-free assay. The protocol:
E9RP is the peptide region of RHA (E9R; SEQ ID NO: 29) fused to the Penetratin peptide (from the Antennapedia homeodomain; SEQ ID NO: 34). Immunoprecipitation of GST-RHA using recombinant EWS-FLI1 bound to a FLI1 antibody. […] E9RP is the sequence of aa 823-832 of human RHA that were synthesized.
(§1) In FIG. 13A, recombinant EWS-FLI1 was treated with NSC635437 for 30 minutes. GST-RHA (630-1020) was added and the complexes were then precipitated with antibody to EWS-FLI1 and Protein G beads. Resolved complexes showing the immunoprecipitated complex control without compound are in lanes 3 (0.1% DMSO) and 5 (0.01% DMSO). […] ESFT TC32 (◯) and neuroblastoma SK-N-AS (▪) were grown for 72 hours in the continuous presence of NSC635437. Cells were incubated in MTT reagent for 4 hours and the dried precipitate was dissolved isopropanol and the absorbance read at 570 nm. Each cell line was standardized to the growth of the DMSO control.
Protein lysates and immunoprecipitations were performed as previously published (Uren et al (2005)). Recombinant GST-RHA (647-1075) was prepared from crude bacterial extracts without further purification.
Reagents were developed to block RHA binding to EWS-FLI1 since RHA is necessary for optimal EWS-FLI1 activity. The E9R peptide corresponds to amino acids 823 to 832, located in the proximal HA2 region of RHA (FIG. 29A). A cell-free protein interaction assay was developed to test whether E9R peptide inhibits RHA binding to EWS-FLI1. […] It was determined whether disrupted EWS-FLI1/RHA binding inhibited cell growth.

Assay [3] deals with TC32 cells. The assay can be described thus: Monolayer cell growth (MTT or WST), TC32. Format: cell-based. The note with it: for IC50: Homo sapiens, TC-32, 168 h, seven days in culture, read-out: IC50, TC32 cells growing in monolayer. On the procedure:
as §1
FIG. 30 provides data to show E9R peptide prevents EWS-FLI1 binding to RHA with specific detrimental effects upon ESFT growth and transformation. […] Scale bar equals 20 μm. […] Only expression of EGFP-E9R in TC71 reduced anchorage independent growth. […] Scale bar equals 20 μm.
FIG. 33 provides data showing YK-4-279 is potent and specific inhibitor of ESFT. […] Cell number was measured by MTT or WST reduction after seven days in culture. […] FIG. 33D cell lines expressing EWS-FLI1 compared to non-EWS-FLI1 malignant cell lines following 3 days in culture to establish the IC50 using WST assay. […] Graph plots level of fluorescence in treated divided by untreated lysate. […] Scale bar equals 200 μm.

The mark [4] stands for this setting: FIG. 24 experiment, read-out: KD.
Where [5] appears, read: SPR, EWS-FLI1 immobilized on CM5 chip, read-out: KD of binding to EWS-FLI1.

Structures are written as SMILES. Values joined by “and” are separate entries in the source; they are usually repeats but may differ in a detail not shown here. Identical values can stand only once. “Also recorded” adds a separate entry of the source. Like-named read-outs stand apart in the source and are kept apart here.

Take `O=C(CC1(O)C(=O)Nc2c(Cl)ccc(Cl)c21)c1ccc(Cl)cc1` (stereo not drawn) [NSC635437, 4,7-Dichloro-3-[2-(4-chlorophenyl)-2-oxoethyl]-3-hydroxyl-1,3-dihydro-2H-indol-2-one]: the Kd is 1210 nM and 2020 nM in assay [1] (setting [4]); 2340 nM and 2000 nM in assay [1] (setting [5]). Also, in assay [1] (library screening, single concentration), the “RUactual:RUtheor” value is listed as 0.9. In addition, in assay [2] (10 μM), the “RHA binding to EWS-FLI1 in solution binding assay” value is reported as “block the binding of RHA to EWS-FLI1”. In addition, in assay [2] (10 μM and 1 μM, GST-RHA (630-1020)), the “complex formation compared to DMSO matched controls” value is listed as “decreased complex formation”. In assay [2], the “binding of GST-RHA (647-1075) to full-length recombinant EWS-FLI1” value is given as “reduced the direct binding”. Further, in assay [3] (72 hours continuous presence), the “cell growth (MTT)” value is given as “specifically cytotoxic to ESFT cells; also recorded: reduces ESFT”. For the same compound, in assay [3], the IC50 came to 20000 nM.
In the case of `COc1ccc(C(=O)CC2(O)C(=O)Nc3c(Cl)ccc(Cl)c32)cc1` (stereo not drawn) [YK-4-279, 4,7-Dichloro-3-hydroxy-3-[2-(4-methoxyphenyl)-2-oxoethyl]-1,3-dihydro-2H-indol-2-one], the Kd in assay [1] (setting [4]) was found to be 4560 nM; in assay [1] (setting [5]) it was 9480 nM. The “binding of GST-RHA (647-1075) to full-length recombinant EWS-FLI1” value in assay [2] is recorded as “significantly reduced the protein-protein interaction”. The IC50 in assay [3] is 900 nM.

As usually defined, the Kd is the free concentration of one partner at which half of the binding sites on the other are occupied at equilibrium, for simple one-to-one binding. For orientation: IC50 means the concentration that gives 50% inhibition.
